According to patent US9751869B2, “LXR modulators” (BRISTOL-MYERS SQUIBB COMPANY, priority 2013, dated 2017):

Target: T1, LXRβ (Homo sapiens, UniProt P55055)
T1 construct: Co-transfection expression plasmids, comprising full-length LXRα (pCMX-h LXRα or LXRβ (pCMX-hLXRβ)); expressed in transfected cells; host or cells: CV-1 African green monkey kidney cells, transient transfection with pCMX-hLXRβ
T1 sequence (P55055 1-460): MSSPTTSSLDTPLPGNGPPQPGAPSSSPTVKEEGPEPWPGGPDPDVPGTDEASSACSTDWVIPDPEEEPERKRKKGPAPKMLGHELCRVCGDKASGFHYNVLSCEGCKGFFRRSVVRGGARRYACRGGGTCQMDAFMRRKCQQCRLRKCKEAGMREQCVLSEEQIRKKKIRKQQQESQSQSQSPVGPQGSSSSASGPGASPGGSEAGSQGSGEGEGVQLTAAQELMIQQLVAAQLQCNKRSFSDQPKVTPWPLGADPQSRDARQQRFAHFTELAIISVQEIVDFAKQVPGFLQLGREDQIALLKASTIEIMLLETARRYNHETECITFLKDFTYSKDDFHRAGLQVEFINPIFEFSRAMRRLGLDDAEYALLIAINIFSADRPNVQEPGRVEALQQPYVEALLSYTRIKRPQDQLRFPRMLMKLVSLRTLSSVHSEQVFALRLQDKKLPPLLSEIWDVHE
T1 sequence (P19793 1-462 partner): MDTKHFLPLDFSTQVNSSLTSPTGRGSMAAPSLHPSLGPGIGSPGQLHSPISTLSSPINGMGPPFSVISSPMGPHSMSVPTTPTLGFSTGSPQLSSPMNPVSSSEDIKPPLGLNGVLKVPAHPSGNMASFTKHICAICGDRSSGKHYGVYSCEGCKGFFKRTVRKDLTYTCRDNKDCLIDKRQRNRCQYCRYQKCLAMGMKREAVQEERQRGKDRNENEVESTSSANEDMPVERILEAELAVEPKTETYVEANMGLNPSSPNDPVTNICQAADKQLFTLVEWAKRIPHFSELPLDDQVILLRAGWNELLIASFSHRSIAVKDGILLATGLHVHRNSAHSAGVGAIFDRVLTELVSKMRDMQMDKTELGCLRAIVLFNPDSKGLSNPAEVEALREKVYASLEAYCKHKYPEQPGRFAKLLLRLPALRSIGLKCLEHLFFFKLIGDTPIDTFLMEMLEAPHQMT
Assay: LXR/LXRE co-transfection assay (luciferase reporter) in CV-1 cells, LXRβ
Format: cell-based
Conditions: for EC50: CV-1 cells transfected with pCMX-hLXRβ and LXREx1-Tk-Luciferase, 20 hours incubation, read-out: LXRbeta agonism EC50; for Emax: CV-1 cells, relative to maximum response of high control N-(3-((4-fluorophenyl)-(naphthalene-2-sulfonyl)amino)propyl)-2,2-dimethylpropionamide, read-out: LXRbeta % EFFICACY
Description: To measure the ability of compounds to activate or inhibit the transcriptional activity of LXR in a cell based assay, the co-transfection assay was used. It has been shown that LXR functions as a heterodimer with RXR. For the co-transfection assay, expression plasmids for LXRα and LXRβ are introduced separately via transient transfection into mammalian cells along with a luciferase reporter plasmid that contains one copy of a DNA sequence that is bound by LXR-RXR heterodimers (LXRE; Willy, P. et. al. 1995). LXRs heterodimerize with the endogenous RXR. Treatment of transfected cells with an LXR agonist increases the transcriptional activity of LXR, which is measured by an increase in luciferase activity.
Co-transfection expression plasmids, comprising full-length LXRα (pCMX-h LXRα or LXRβ (pCMX-hLXRβ), reporter plasmid (LXREx1-Tk-Luciferase), and control (pCMX-Galactosidase expression vector) (Willey et al. Genes & Development 9 1033-1045 (1995)).
CV-1 cells were prepared 24 hours prior to the experiment by plating them into T-175 flasks or 500 cm^2 dishes in order to achieve 70-80% confluency on the day of the transfection. The number of cells to be transfected was determined by the number of plates to be screened. Each well of a 384 well plate requires 1.5×10^4 cells. DNA Transfection Reagent was prepared by mixing the required plasmid DNAs with a cationic lipid transfection reagent Transit 2020 (Mirus Bio) for CV1 by following the instructions provided with the reagents. Optimal DNA amounts were determined empirically per cell line and size of vessel to be transfected. For each T175 cm^2 flask a total of 44.4 ug for CV1 of DNA, 133 ul Transit2020 and 4.5 ml DMEM for CV1 was mixed and added. Cells were then incubated at least 5 hours at 37° C. to prepare screening cells.
Assay plates were prepared by dispensing 5 μL of compound per well of a 384 well plate to achieve final compound concentration of 10 μM and no more than 0.5% DMSO. Media was removed from the screening cells, the cells trypsinized, harvested cells by centrifugation, counted, and plated at a density of approximately 1.5×10^4 cells in the 384 well assay plate prepared above in a volume of about 95 uL. Assay plates containing both compounds and screening cells (100 μL in total volume) were incubated for 20 hours at 37° C.
After incubation with compounds, media was removed from the cells and luciferase assay reagent (30 μL/well) added. After ˜2 minutes at ambient temperature, the assay plates were read on a luminometer (PE Biosystems Northstar reader with on-board injectors, or Envision (Perkin Elmer) or equivalent).
The LXR/LXRE co-transfection assay can be used to establish the EC50/IC50 values for potency and percent activity or inhibition for efficacy. Efficacy defines the activity of a compound relative to a high control ((N-(3-((4-fluorophenyl)-(naphthalene-2-sulfonyl)amino)propyl)-2,2-dimethylpropionamide)) or a low control (DMSO/vehicle). The dose response curves are generated from a 10 point curve with concentrations differing by ½ LOG units. Each point represents the average of 4 wells of data from a 384 well plate.
The data from this assay is fitted to the following equation, from which the EC50 value may be solved: Y=Bottom+(Top−Bottom)/(1+10^((log EC50-X)*HillSlope)).
The EC50/IC50 is therefore defined as the concentration at which an agonist or antagonist elicits a response that is halfway between the Top (maximum) and Bottom (baseline) values. The EC50/IC50 values represented are the averages of at least 2 and normally 3 independent experiments. The determination of the relative efficacy or % control for an agonist is by comparison to the maximum response achieved by ((N-(3-((4-fluorophenyl)-(naphthalene-2-sulfonyl)-amino)propyl)-2,2-dimethylpropionamide) that is measured individually in each dose response experiment.
Table 1 lists LXRβ EC50 values and % efficacy measurements in the cotransfection assay for examples of this invention.

SMILES | EC50 [nM] | Emax [%]
Cn1nc(C(F)(F)C(=O)NC(C)(C)CO)cc1-c1ccc(-c2cc(F)c(CO)c(S(C)(=O)=O)c2)cc1-n1nncc1-c1ccc(OC(F)(F)F)cc1 [Example 27, 2,2-difluoro-2-(5-(3′-fluoro-4′-(hydroxymethyl)-5′-(methylsulfonyl)-3-(5-(4-(trifluoromethoxy)phenyl)-1H-1,2,3-triazol-1-yl)-[1,1′-biphenyl]-4-yl)-1-methyl-1H-pyrazol-3-yl)-N-(1-hydroxy-2-methylpropan-2-yl)acetamide] | 1570 | 111
Cn1nc(C(F)(F)C(=O)NC(C)(C)CO)cc1-c1ccc(-c2cccc(S(C)(=O)=O)c2)cc1-n1nncc1-c1ccc(OC(F)(F)F)cc1 [Example 28, 2,2-difluoro-N-(1-hydroxy-2-methylpropan-2-yl)-2-(1-methyl-5-(3′-(methylsulfonyl)-3-(5-(4-(trifluoromethoxy)phenyl)-1H-1,2,3-triazol-1-yl)-[1,1′-biphenyl]-4-yl)-1H-pyrazol-3-yl)acetamide] | 501 | 107
Cn1nc(C(F)(F)CNCCO)cc1-c1ccc(-c2cccc(S(C)(=O)=O)c2)cc1-n1nncc1-c1ccc(OC(F)(F)F)cc1 [Example 29, 2-((2,2-difluoro-2-(1-methyl-5-(3′-(methylsulfonyl)-3-(5-(4-(trifluoromethoxy)phenyl)-1H-1,2,3-triazol-1-yl)-[1,1′-biphenyl]-4-yl)-1H-pyrazol-3-yl)ethyl)amino)ethanol] | 1230 | 80
Cn1nc(C(F)(F)C#N)cc1-c1ccc(-c2cccc(S(C)(=O)=O)c2)cc1-n1nncc1-c1ccc(OC(F)(F)F)cc1 [Example 30, 2,2-difluoro-2-(1-methyl-5-(3′-(methylsulfonyl)-3-(5-(4-(trifluoromethoxy)phenyl)-1H-1,2,3-triazol-1-yl)-[1,1′-biphenyl]-4-yl)-1H-pyrazol-3-yl)acetonitrile] | 1090 | 15
Cn1nc(C(F)(F)C(C)(C)O)cc1-c1ccc(-c2cccc(S(C)(=O)=O)c2)cc1-n1nncc1-c1ccc(Cl)cc1 [Example 31, 1-(5-(3-(5-(4-chlorophenyl)-1H-1,2,3-triazol-1-yl)-3′-(methylsulfonyl)-[1,1′-biphenyl]-4-yl)-1-methyl-1H-pyrazol-3-yl)-1,1-difluoro-2-methylpropan-2-ol] | 568 | 50
Cn1nc(C(F)(F)C(N)=O)cc1-c1ccc(-c2cccc(S(C)(=O)=O)c2)cc1-n1nncc1-c1ccc(Cl)cc1Cl [Example 32, 2-(5-(3-(5-(2,4-dichlorophenyl)-1H-1,2,3-triazol-1-yl)-3′-(methylsulfonyl)-[1,1′-biphenyl]-4-yl)-1-methyl-1H-pyrazol-3-yl)-2,2-difluoroacetamide] | 1760 | 43
Cn1nc(C(F)(F)C(C)(C)O)cc1-c1ccc(-c2cccc(S(C)(=O)=O)c2)cc1-n1nncc1-c1ccc2c(c1)OC(F)(F)O2 [Example 33, 1-(5-(3-(5-(2,2-difluorobenzo[d][1,3]dioxol-5-yl)-1H-1,2,3-triazol-1-yl)-3′-(methylsulfonyl)-[1,1′-biphenyl]-4-yl)-1-methyl-1H-pyrazol-3-yl)-1,1-difluoro-2-methylpropan-2-ol] | 1430 | 66

The next lines start with the values.

EC50 [nM] | Emax [%] | SMILES
878 | 63 | Cn1nc(C(F)(F)C(C)(C)O)cc1-c1ccc(-c2cc(F)c(CO)c(S(C)(=O)=O)c2)cc1-n1nncc1-c1ccc2c(c1)OC(F)(F)O2 [Example 34, 1-(5-(3-(5-(2,2-difluorobenzo[d][1,3]dioxol-5-yl)-1H-1,2,3-triazol-1-yl)-3′-fluoro-4′-(hydroxymethyl)-5′-(methylsulfonyl)-[1,1′-biphenyl]-4-yl)-1-methyl-1H-pyrazol-3-yl)-1,1-difluoro-2-methylpropan-2-ol]
2230 | 87 | Cn1nc(C(F)(F)CO)cc1-c1ccc(-c2cccc(S(C)(=O)=O)c2)cc1-n1nncc1-c1ccc2c(c1)OC(F)(F)O2 [Example 35, 2-(5-(3-(5-(2,2-difluorobenzo[d][1,3]dioxol-5-yl)-1H-1,2,3-triazol-1-yl)-3′-(methylsulfonyl)-[1,1′-biphenyl]-4-yl)-1-methyl-1H-pyrazol-3-yl)-2,2-difluoroethanol]
2730 | 91 | Cn1nc(C(F)(F)CO)cc1-c1ccc(-c2cc(F)c(CO)c(S(C)(=O)=O)c2)cc1-n1nncc1-c1ccc2c(c1)OC(F)(F)O2 [Example 36, 2-(5-(3-(5-(2,2-difluorobenzo[d][1,3]dioxol-5-yl)-1H-1,2,3-triazol-1-yl)-3′-fluoro-4′-(hydroxymethyl)-5′-(methylsulfonyl)-[1,1′-biphenyl]-4-yl)-1-methyl-1H-pyrazol-3-yl)-2,2-difluoroethanol]
1560 | 47 | Cn1nc(C(=O)NC(C)(C)C#N)cc1-c1ccc(-c2cccc(S(C)(=O)=O)c2)cc1-n1nncc1-c1ccc(OC(F)(F)F)cc1 [Example 37, N-(1-cyano-1-methylethyl)-1-methyl-5-[3′-(methylsulfonyl)-3-(5-{4-[(trifluoromethyl)oxy]phenyl}-1H-1,2,3-triazol-1-yl)biphenyl-4-yl]-1H-pyrazole-3-carboxamide]
1130 | 60 | CN(C)C(=O)c1cc(-c2ccc(-c3cccc(S(C)(=O)=O)c3)cc2-n2nncc2-c2ccc(OC(F)(F)F)cc2)n(C)n1 [Example 38, N,N,1-trimethyl-5-[3′-(methylsulfonyl)-3-(5-{4-[(trifluoromethyl)oxy]phenyl}-1H-1,2,3-triazol-1-yl)biphenyl-4-yl]-1H-pyrazole-3-carboxamide]
776 | 79 | Cn1nc(C(=O)NCC(F)(F)F)cc1-c1ccc(-c2cccc(S(C)(=O)=O)c2)cc1-n1nncc1-c1ccc(OC(F)(F)F)cc1 [Example 39, 1-methyl-5-[3′-(methylsulfonyl)-3-(5-{4-[(trifluoromethyl)oxy]phenyl}-1H-1,2,3-triazol-1-yl)biphenyl-4-yl]-N-(2,2,2-trifluoroethyl)-1H-pyrazole-3-carboxamide]
